The source of these data is patent US7655819B2, “Polymers with antimicrobial, bioresistant and fungal resistant properties” (TPAT IP LLC, priority 2002, dated 2010).

The test system of experiment [1] is various strains of both gram positive and gram negative bacteria. The following applies: cited from earlier work.
Another experiment relates to fungus. The conditions noted are these: cited from earlier work.
The test system of experiment [2] is bacteria (bacterial count). Put plainly: ASTM D-3946-92 testing of metalworking fluid Encool SS with product incorporated. In kind it is cell-based. The conditions noted are these: day 5, 1×10^7 without product. The method, then: 1,128 g oleic acid and 400 g BNPD plus 2 g sulfuric were charged in a three neck round bottom flask with agitation, nitrogen, and condenser and heated to 350 F and held for 2.5 hrs until 80 ml of water were recovered. This product was then incorporated into Engineered Lubricants Encool SS at 6% and 10% of the concentrate.
These samples were then submitted for ASTM D-3946-92 testing.

The subject of another experiment is nematodes in the soil. The conditions noted are these: prior art; cited from earlier work.
The conditions of experiment [3]: prior art; cited from earlier work.

As to `O=[N+]([O-])C(Br)(CO)CO` [BNPD, 2-bromo-2-nitro-propane-1-3-diol], the “average minimum inhibitory concentration” value in experiment [1] (average over gram positive and gram negative strains) is “around 25 ppm”. In addition, in experiment [1] (various strains of gram positive and gram negative bacteria), the “effective concentrations against bacteria” value is 1-50 ppm. Besides, the antifungal activity result in the experiment on fungus is recorded as “antifungal”.
For `CCCCCCC/C=C/CCCCCCCCC(=O)OCC(Br)(COC(=O)CCCCCCCC/C=C/CCCCCCC)[N+](=O)[O-]` [Example 7], the bacterial count was 1.5×10^4 in experiment [2] (6% incorporation in Encool SS concentrate) and 3×10^3 in experiment [2] (10% incorporation in Encool SS concentrate).
Consider `O=[N+]([O-])CBr` [bromonitromethane], for which the “effectiveness for the treatment of nematodes in the soil” value in the experiment with nematodes in the soil is listed as “effective”. Further, the “effectiveness as a general biocide” value in experiment [3] is listed as “effective”.
